In patent publication US20110306606A1, “NOVEL 2,6-SUBSTITUTED-3-NITROPYRIDINE DERIVATIVE, METHOD FOR PREPARING SAME, AND PHARMACEUTICAL COMPOSITION INCLUDING SAME” (priority 2008, published 2011):
Read-outs that look alike come from different tables or passages of the source.

What was measured:
[1] = system: formation of osteoclasts in co-culture of bone marrow cells and osteoblasts; assay: Osteoclastogenesis inhibition via co-culture system (TRAP staining); format: cell-based, mice; conditions: 1 μM compound, 7 days co-culture, TRAP-positive multinucleated osteoclasts vs vehicle control; for inhibition at 1 µM: Mus musculus, Osteoclast, 168 h
Experimental: Osteoclastogenesis inhibitory effects of the compounds of the present invention were evaluated via a co-culture system (Reference: Endocrinology 137(1996), 2187 to 2190, E. Jimi et al.). A specific experimental method is as follows.
1) Preparation of Bone Marrow Cells and Osteoblasts
Femora and tibia were aseptically dissected from 6 to 8-week-old male ddY mice to harvest bone marrow cells by a conventional method using a syringe. In brief, tissues were removed from the dissected bone, the bone ends were cut off with scissors, and the bone marrow was isolated by pushing a medium-containing syringe (23G) against the one end of the cut bone. The isolated bone marrow was subjected to repeated piston movement of a syringe such that single cells were obtained (Reference: Endocrinology 123(1988), 2600 to 2602, Takahashi et al.). After removal of red blood cells within the bone marrow, the bone marrow cells recovered by centrifugation were placed in an α-MEM supplemented with 10% fetal bovine serum (FBS), followed by counting of nucleated cells and then were immediately used for a co-culture system.
2) Osteoclastogenesis Inhibition Experiment Via Co-Culture System
As the medium used for a co-culture system, a differentiation medium with the addition of differentiation factors 1α,25-dihydroxyvitamin D3 (10^−8M) and dexamethasone (10^−8M) to a-MEM supplemented with 10% FBS was used for the induction of osteoclastogenesis. First, the compounds dissolved in dimethyl sulfoxide (DMSO) at a concentration of 1 mM were diluted to 2 μM using the above-mentioned differentiation medium. As a vehicle control group, 0.2% (v/v) DMSO was added to the medium. 100 μL/well of each medium was added to 96-well plates. In addition, the above prepared bone marrow cells and osteoblasts were plated onto 96-well plates at a density of 1×10^5 cells/50 μL/well and 3×10^3 cells/50 μL/well, respectively. The total volume/well was 200 μL and the final compound concentration was 1 μM. The control group was 0.1% DMSO. The cells were cultured with exchange of the culture media with fresh media containing differentiation factors and test materials at an interval of 2 to 3 days.
7 days after culturing of cells, the formation of multinucleated osteoclasts was confirmed by microscopic examination, the medium was removed from the wells and then the cells were fixed in a 10% phosphate-buffered formalin solution. The degree of formation of mature osteoclasts was measured taking advantage of the characteristics of osteoclasts showing a positive reaction to a tartrate-resistant acid phosphatase (TRAP) staining solution. The TRAP staining solution was prepared in a manner such that naphthol AS-MS phosphate as a substrate and a coloring agent (Fast Red Violet LB salt) were dissolved in N,N-dimethylformamide, and a 0.1N NaHCO3 buffer solution containing 50 mM of tartaric acid was added thereto. Among the TRAP-positive cells under a light microscope, multinucleated osteoclasts having 6 to 7 nuclei were regarded as mature osteoclasts.
The degree of inhibition of osteoclastogenesis was calculated according to the following equation 1. The results are summarized in Table 27 below (Experiments were carried out for 4 wells/experimental group (n=4), and the results are given in terms of mean±standard deviation)
Inhibition of osteoclastogenesis(%)=(1−numbers of osteoclasts observed in experimental group/numbers of osteoclasts observed in vehicle control group)×100(%) [Equation 1]

[2] = system: Osteoblasts (Calvarial cells); conditions: ICR, mouse, 72 h, 1 μM
[3] = system: Osteoblasts (Calvarial cells); assay: Cytotoxicity test (MTT); conditions: 1 μM compound, 72 hours, in comparison with vehicle control

## Cc1ccc(Nc2nc(-n3ccnc3C(C)C)ccc2[N+](=O)[O-])cc1 [Compound 7, 2-(4-methylphenylamino)-6-[(2-isopropyl)imidazol-1-yl]-3-nitropyridine]
[1]
  inhibition at 1 µM: 100%
[2]
  Cell viability (%) Calvarial cell: 103%

## Cc1ccc(Nc2nc(NCCc3cccnc3)ccc2[N+](=O)[O-])cc1 [Compound 10, 2-(4-methylphenylamino)-6-[2-(3-pyridyl)ethylamino]-3-nitropyridine]
[1]
  inhibition at 1 µM: 64%
[2]
  Cell viability (%) Calvarial cell: 116%

## Cc1ccc(Nc2nc(N3CCNCC3)ccc2[N+](=O)[O-])cc1 [Compound 12, 2-(4-methylphenylamino)-6-(piperazin-1-yl)-3-nitropyridine]
[1]
  inhibition at 1 µM: 63%
[2]
  Cell viability (%) Calvarial cell: 103%

## COc1ccc(Nc2nc(N3CCC(N)CC3)ccc2[N+](=O)[O-])cc1 [Compound 28, 2-(4-methoxyphenylamino)-6-(4-aminopiperidino)-3-nitropyridine]
[1]
  inhibition at 1 µM: 88%
[2]
  Cell viability (%) Calvarial cell: 89%

## CC(C)(C)c1ccc(Nc2nc(N3CCNCC3)ccc2[N+](=O)[O-])cc1 [Compound 42, 2-[4-(t-butyl)phenylamino]-6-(piperazin-1-yl)-3-nitropyridine]
[1]
  inhibition at 1 µM: 96%
[2]
  Cell viability (%) Calvarial cell: 103%

## CSc1ccc(Nc2nc(NCCCn3ccnc3)ccc2[N+](=O)[O-])cc1 [Compound 55, 2-[4-(methylsulfanyl)phenylamino]-6-[(3-imidazol-1-yl)propylamino]-3-nitropyridine]
[1]
  inhibition at 1 µM: 98%
[2]
  Cell viability (%) Calvarial cell: 105%

## CCCCc1ccc(Nc2nc(NCCCn3ccnc3)ccc2[N+](=O)[O-])cc1 [Compound 56, 2-[4-(n-butyl)phenylamino]-6-[(3-imidazol-1-yl)propylamino]-3-nitropyridine]
[1]
  inhibition at 1 µM: 99%
[2]
  Cell viability (%) Calvarial cell: 104%

## Nc1ccc(Nc2nc(N3CCOCC3)ccc2[N+](=O)[O-])cc1 [Compound 64, 2-[4-(amino)phenylamino]-6-morpholino-3-nitropyridine]
[1]
  inhibition at 1 µM: 65%
[2]
  Cell viability (%) Calvarial cell: 102%

## Nc1ccc(Nc2nc(NCc3ccncc3)ccc2[N+](=O)[O-])cc1 [Compound 66, 2-[4-(amino)phenylamino]-6-[(4-pyridyl)methylamino]-3-nitropyridine]
[1]
  inhibition at 1 µM: 65%
[2]
  Cell viability (%) Calvarial cell: 107%

## CC(C)c1nccn1-c1ccc([N+](=O)[O-])c(Nc2ccc(-n3ccnc3)cc2)n1 [Compound 92, 2-[4-(imidazol-1-yl)phenylamino]-6-[(2-isopropyl)imidazol-1-yl]-3-nitropyridine]
[1]
  inhibition at 1 µM: 64%
[2]
  Cell viability (%) Calvarial cell: 101%

## O=[N+]([O-])c1ccc(NCc2cccnc2)nc1Nc1ccc(-n2ccnc2)cc1 [Compound 93, 2-[4-(imidazol-1-yl)phenylamino]-6-[(3-pyridyl)methylamino]-3-nitropyridine]
[1]
  inhibition at 1 µM: 66%
[2]
  Cell viability (%) Calvarial cell: 98%

## Cc1nc(-c2ccc(Nc3nc(NCC(C)C)ccc3[N+](=O)[O-])cc2)cs1 [Compound 134, 2-[4-(2-methylthiazol-4-yl)phenylamino]-6-(isobutylamino)-3-nitropyridine]
[1]
  inhibition at 1 µM: 61%
[2]
  Cell viability (%) Calvarial cell: 93%

## Cc1nc(-c2ccc(Nc3nc(N4CCNCC4)ccc3[N+](=O)[O-])cc2)cs1 [Compound 143, 2-[4-(2-methylthiazol-4-yl)phenylamino]-6-(piperazin-1-yl)-3-nitropyridine]
[1]
  inhibition at 1 µM: 99%
[2]
  Cell viability (%) Calvarial cell: 85%

## NC1CCN(c2ccc([N+](=O)[O-])c(Nc3ccc(N4CCSCC4)c(F)c3)n2)CC1 [Compound 214, 2-[(3-fluoro-4-thiomorpholino)phenylamino]-6-(4-aminopiperidino)-3-nitropyridine]
[1]
  Osteoclastogenesis inhibition (%) 1 μM: 98%
[3]
  Cell viability (%) Calvarial cell: 103%

## O=[N+]([O-])c1ccc(NCc2cccnc2)nc1Nc1ccc(N2CCNCC2)c(F)c1 [Compound 220, 2-[(3-fluoro-4-piperazino)phenylamino]-6-[(3-pyridyl)methylamino]-3-nitropyridine]
[1]
  Osteoclastogenesis inhibition (%) 1 μM: 82%
[3]
  Cell viability (%) Calvarial cell: 93%

## O=[N+]([O-])c1ccc(NCc2ccncc2)nc1Nc1ccc(N2CCNCC2)c(F)c1 [Compound 221, 2-[(3-fluoro-4-piperazino)phenylamino]-6-[(4-pyridyl)methylamino]-3-nitropyridine]
[1]
  Osteoclastogenesis inhibition (%) 1 μM: 89%
[3]
  Cell viability (%) Calvarial cell: 91%

## O=[N+]([O-])c1ccc(N2CCC(O)CC2)nc1Nc1ccc(N2CCCCC2)c(F)c1 [Compound 226, 2-[(3-fluoro-4-piperidino)phenylamino]-6-(4-hydroxypiperidino)-3-nitropyridine]
[1]
  Osteoclastogenesis inhibition (%) 1 μM: 66%
[3]
  Cell viability (%) Calvarial cell: 104%

## CC(C)c1nccn1-c1ccc([N+](=O)[O-])c(Nc2ccc(N3CCCCC3)c(F)c2)n1 [Compound 228, 2-[(3-fluoro-4-piperidino)phenylamino]-6-[(2-isopropyl)imidazol-1-yl]-3-nitropyridine]
[1]
  Osteoclastogenesis inhibition (%) 1 μM: 73%
[3]
  Cell viability (%) Calvarial cell: 99%

## CN1CCN(c2ccc([N+](=O)[O-])c(Nc3ccc(N4CCCCC4)c(F)c3)n2)CC1 [Compound 232, 2-[(3-fluoro-4-piperidino)phenylamino]-6-(4-methylpiperazin-1-yl)-3-nitropyridine]
[1]
  Osteoclastogenesis inhibition (%) 1 μM: 86%
[3]
  Cell viability (%) Calvarial cell: 100%

## O=[N+]([O-])c1ccc(N2CCNCC2)nc1Nc1ccc(N2CCCCC2)c(F)c1 [Compound 233, 2-[(3-fluoro-4-piperidino)phenylamino]-6-(piperazin-1-yl)-3-nitropyridine]
[1]
  Osteoclastogenesis inhibition (%) 1 μM: 96%
[3]
  Cell viability (%) Calvarial cell: 102%

## NC1CCN(c2ccc([N+](=O)[O-])c(Nc3ccc(N4CCCCC4)c(F)c3)n2)CC1 [Compound 234, 2-[(3-fluoro-4-piperidino)phenylamino]-6-(4-aminopiperidino)-3-nitropyridine]
[1]
  Osteoclastogenesis inhibition (%) 1 μM: 100%
[3]
  Cell viability (%) Calvarial cell: 94%

## CC(C)CNc1ccc([N+](=O)[O-])c(Nc2ccc(N3CCC(O)CC3)c(F)c2)n1 [Compound 238, 2-{[3-fluoro-4-(4-hydroxypiperidino)]phenylamino}-6-(isobutylamino)-3-nitropyridine]
[1]
  Osteoclastogenesis inhibition (%) 1 μM: 75%
[3]
  Cell viability (%) Calvarial cell: 106%

## O=[N+]([O-])c1ccc(NCc2cccnc2)nc1Nc1ccc(N2CCC(O)CC2)c(F)c1 [Compound 241, 2-{[3-fluoro-4-(4-hydroxypiperidino)]phenylamino}-6-[(3-pyridyl)methylamino]-3-nitropyridine]
[1]
  Osteoclastogenesis inhibition (%) 1 μM: 87%
[3]
  Cell viability (%) Calvarial cell: 100%

## O=[N+]([O-])c1ccc(NCc2ccncc2)nc1Nc1ccc(N2CCC(O)CC2)c(F)c1 [Compound 242, 2-{[3-fluoro-4-(4-hydroxypiperidino)]phenylamino}-6-[(4-pyridyl)methylamino]-3-nitropyridine]
[1]
  Osteoclastogenesis inhibition (%) 1 μM: 93%
[3]
  Cell viability (%) Calvarial cell: 114%

## NC1CCN(c2ccc([N+](=O)[O-])c(Nc3ccc(N4CCC(O)CC4)c(F)c3)n2)CC1 [Compound 246, 2-{[3-fluoro-4-(4-hydroxypiperidino)]phenylamino}-6-(4-aminopiperidino)-3-nitropyridine]
[1]
  Osteoclastogenesis inhibition (%) 1 μM: 80%
[3]
  Cell viability (%) Calvarial cell: 105%
